Assays:
[1] = target: T1, IG-PARP-12 (I660G PARP-12) (Homo sapiens, UniProt Q9H0J9, I660G); experiment: Labeling by orthogonal NAD+ analogs with PARP-12 I660G mutant; type: biochemical; conditions: compared to 5-Bn-6-a-NAD+
T1 construct: GFP; expressed in transfected cells
Source text: Figure 1. A chemical genetic strategy for identifying the direct MARylation targets of PARP-7. (a) Schematic of chemical genetic approach for identifying direct targets of PARP-7. (b) Crystal structure of human PARP1 bound to the non-hydrolyzable NAD^+ analog benzamide adenine dinucleotide (BAD). PDB: 6bhv. […] (c) Chemical structure of the clickable, orthogonal NAD^+ analogs. 5-Bn-2-e-NAD^+ is the optimized substrate for the floor position engineered PARP-7, IG-PARP-7. 5-Bn-6-a-NAD^+ was used in our previous studies by other floor position engineered PARPs (e.g. PARP14). (d) 5-Bn-2-e-NAD^+ is an efficient substrate for IG-PARP-7. HEK293T cells were transfected with either GFP-WT-PARP-7 (control) or GFP-IG-PARP-7. Cell lysates were prepared and incubated with either 5-Bn-2-e-NAD^+ or 5-Bn-6-a-NAD^+ (100 µM). Following copper-catalyzed click chemistry with biotin-azide, proteins were resolved by SDS-PAGE and biotinylated proteins were detected by Western blot detection using Streptavidin-HRP. Biotinylated proteins represent direct MARylation targets of PARP-7. Figure 1—figure supplement 1. Enrichment of PARP-7 MARylation targets and labeling of PARP-12 IG targets using a chemical genetic approach. (a) Labeling of PARP-7 MARylation targets was performed as described in Figure 1. Neutravidin agarose was used to enrich biotinylated proteins (i.e. MARylation targets). […]

IG-PARP-7 (I631G PARP-7) = target: T2, IG-PARP-7 (I631G PARP-7) (Homo sapiens, UniProt Q7Z3E1, I631G); experiment: Labeling by orthogonal NAD+ analogs in HEK 293T lysates expressing GFP-IG-PARP-7 (click with biotin-azide, Streptavidin-HRP); type: biochemical; conditions: HEK 293 T cell lysates, 100 µM NAD+ analog
T2 construct: expressed in transfected cells; host or cells: HEK 293T (lysate)
Source text: Identifying the protein targets of PARP-7 is a critical first step toward unraveling its function in cells. In previous work we have developed an engineered enzyme—modified substrate strategy for identifying relevant targets of individual PARP family members ([Carter-O'Connell et al., 2014]; [Carter-O'Connell et al., 2016]; [Carter-O'Connell and Cohen, 2015]; [Carter-O'Connell et al., 2018]). This chemical genetic (CG) method uses engineered PARPs and an orthogonal NAD^+ analogue that contains a clickable handle (e.g. an alkyne) that is located at the N-6 position of the adenine ring (5-Bn-6-a-NAD^+). […] Importantly, 5-Bn-6-a-NAD^+ is not used by wild-type (WT) PARPs and in this way is orthogonal to native NAD^+. […] We therefore sought a new orthogonal NAD^+ analogue that would serve as an efficient substrate for floor position engineered PARP-7, I631G PARP-7 (IG-PARP-7) (Figure 1a).
Figure 1. A chemical genetic strategy for identifying the direct MARylation targets of PARP-7. (a) Schematic of chemical genetic approach for identifying direct targets of PARP-7. (b) Crystal structure of human PARP1 bound to the non-hydrolyzable NAD^+ analog benzamide adenine dinucleotide (BAD). PDB: 6bhv. […] Following copper-catalyzed click chemistry with biotin-azide, proteins were resolved by SDS-PAGE and biotinylated proteins were detected by Western blot detection using Streptavidin-HRP. […]

T2 sequence (Q7Z3E1 whole entry I631G): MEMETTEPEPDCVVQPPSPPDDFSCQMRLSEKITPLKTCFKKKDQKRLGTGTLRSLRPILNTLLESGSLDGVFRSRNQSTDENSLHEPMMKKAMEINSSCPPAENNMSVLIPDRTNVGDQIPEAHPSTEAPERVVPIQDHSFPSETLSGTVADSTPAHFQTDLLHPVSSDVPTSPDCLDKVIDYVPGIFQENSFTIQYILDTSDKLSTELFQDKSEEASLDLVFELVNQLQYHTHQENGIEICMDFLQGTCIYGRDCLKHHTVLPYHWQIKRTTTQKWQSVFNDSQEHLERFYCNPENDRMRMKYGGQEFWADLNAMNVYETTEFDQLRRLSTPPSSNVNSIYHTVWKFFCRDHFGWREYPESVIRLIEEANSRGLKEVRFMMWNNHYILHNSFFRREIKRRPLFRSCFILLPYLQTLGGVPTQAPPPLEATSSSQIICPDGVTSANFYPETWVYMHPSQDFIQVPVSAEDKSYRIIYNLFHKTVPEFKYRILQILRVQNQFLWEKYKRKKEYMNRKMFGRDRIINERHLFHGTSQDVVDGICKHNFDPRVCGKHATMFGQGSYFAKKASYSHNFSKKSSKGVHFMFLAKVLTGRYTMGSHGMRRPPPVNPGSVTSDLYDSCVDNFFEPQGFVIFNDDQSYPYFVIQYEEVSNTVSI
T1 sequence (Q9H0J9 whole entry I660G): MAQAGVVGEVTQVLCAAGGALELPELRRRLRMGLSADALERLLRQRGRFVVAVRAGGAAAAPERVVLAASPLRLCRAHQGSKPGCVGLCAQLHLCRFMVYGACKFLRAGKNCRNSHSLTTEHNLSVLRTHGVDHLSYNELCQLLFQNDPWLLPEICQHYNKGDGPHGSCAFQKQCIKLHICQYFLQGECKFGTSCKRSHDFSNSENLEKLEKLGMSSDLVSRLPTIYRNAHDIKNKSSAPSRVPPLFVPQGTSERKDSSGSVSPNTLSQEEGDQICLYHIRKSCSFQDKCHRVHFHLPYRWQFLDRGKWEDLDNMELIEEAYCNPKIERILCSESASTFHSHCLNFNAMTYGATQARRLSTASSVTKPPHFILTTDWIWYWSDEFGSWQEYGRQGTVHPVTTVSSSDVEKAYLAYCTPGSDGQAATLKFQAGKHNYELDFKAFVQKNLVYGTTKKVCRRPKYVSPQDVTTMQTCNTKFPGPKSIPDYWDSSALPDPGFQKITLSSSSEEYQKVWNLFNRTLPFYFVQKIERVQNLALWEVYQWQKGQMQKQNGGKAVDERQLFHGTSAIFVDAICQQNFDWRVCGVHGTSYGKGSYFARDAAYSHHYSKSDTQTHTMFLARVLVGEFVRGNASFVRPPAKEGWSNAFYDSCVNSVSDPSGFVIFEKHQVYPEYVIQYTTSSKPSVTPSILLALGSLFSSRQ

C#Cc1nc(N)c2ncn(C3OC(COP(=O)(O)OP(=O)([O-])OCC4OC([n+]5cc(Cc6ccccc6)cc(C(N)=O)c5)C(O)C4O)C(O)C3O)c2n1 (centres unmarked) [5-Bn-2-e-NAD^+, 5-benzyl-2-ethynyl-NAD^+]
substrate for IG-PARP-12 [1]: better substrate | substrate for floor position engineered PARP-7 (IG-PARP-7) (IG-PARP-7 (I631G PARP-7)): much better substrate
